Assay results reported in patent publication US11111249B2, “Heteroaryl-pyrazole derivative, and preparation method therefor and medical application thereof” (Jiangsu Hengrui Medicine Co., Ltd., priority 2017, dated 2021).

Key:
human TLR7 = biological target: T1, human TLR7 (Homo sapiens, UniProt Q9NYK1); test: Activation of hTLR7 in HEK-Blue hTLR7 stably transfected cells; assay type: cell-based; conditions: OD 620 nm, 6-16 hours
T1 construct: host or cells: HEK-Blue hTLR7 (HEK293-derived) stably transfected cells
T1 sequence (Q9NYK1 27-1049): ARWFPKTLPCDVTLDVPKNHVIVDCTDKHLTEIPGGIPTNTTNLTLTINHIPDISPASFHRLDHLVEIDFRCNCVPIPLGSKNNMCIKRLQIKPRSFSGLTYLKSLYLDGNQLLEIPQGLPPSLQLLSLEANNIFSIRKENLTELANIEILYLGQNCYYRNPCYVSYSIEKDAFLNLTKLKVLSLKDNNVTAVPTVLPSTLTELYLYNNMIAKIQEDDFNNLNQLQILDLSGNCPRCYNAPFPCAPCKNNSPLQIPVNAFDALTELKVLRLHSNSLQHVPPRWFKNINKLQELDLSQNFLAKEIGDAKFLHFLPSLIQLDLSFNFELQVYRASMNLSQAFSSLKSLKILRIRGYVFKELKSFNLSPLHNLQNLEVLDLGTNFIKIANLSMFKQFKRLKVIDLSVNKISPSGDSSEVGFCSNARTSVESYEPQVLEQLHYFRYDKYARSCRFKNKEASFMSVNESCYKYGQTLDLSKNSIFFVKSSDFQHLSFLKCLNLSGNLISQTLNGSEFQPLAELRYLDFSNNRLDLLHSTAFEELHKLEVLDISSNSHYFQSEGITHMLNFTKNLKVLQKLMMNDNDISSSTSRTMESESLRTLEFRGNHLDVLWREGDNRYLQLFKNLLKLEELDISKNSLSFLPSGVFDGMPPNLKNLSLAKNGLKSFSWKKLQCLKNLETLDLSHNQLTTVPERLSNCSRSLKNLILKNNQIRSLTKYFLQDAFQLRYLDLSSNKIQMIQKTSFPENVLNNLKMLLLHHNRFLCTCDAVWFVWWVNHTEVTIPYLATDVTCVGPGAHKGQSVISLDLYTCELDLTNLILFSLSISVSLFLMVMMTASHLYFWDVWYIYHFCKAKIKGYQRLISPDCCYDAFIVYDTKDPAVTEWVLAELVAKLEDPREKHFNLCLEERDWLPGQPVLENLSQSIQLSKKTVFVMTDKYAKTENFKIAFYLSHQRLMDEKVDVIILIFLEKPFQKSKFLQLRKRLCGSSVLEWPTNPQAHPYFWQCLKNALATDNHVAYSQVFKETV
Experimental: The activation effect of the compound of the present application on the hTLR7 protein expressed in HEK-Blue™ hTLR7 stably transfected cells and hTLR8 protein expressed in HEK-Blue™ hTLR8 stably transfected cells were determined by the following experimental method:
The HEK-Blue assay medium was configured, HEK-Blue test dry powder was taken and 50 mL deendotoxin water were added to dissolve, then the resulting mixture was placed into the 37° C. incubator, and then filtered aseptically 10 minutes later. […]
The above-prepared compound was diluted 20-fold with a medium, and then 20 μL of the diluted compound were added to each well. HEK-Blue™ hTLR7 cells and HEK-Blue™ hTLR8 cells were taken separately, and the supernatant was removed first, then 2-5 mL pre-warmed PBS was added, placed in an incubator for 1-2 minutes, and the cells were gently pipetted, stained with trypan blue and counted. […]
The microplate reader reads at a wavelength of 620 nm. The corresponding OD value was obtained, and the EC50 value of the drug was calculated by Graphpad Prism. The activation effect of the compound of the present application and the control compound (prepared by the method of embodiment 21 of WO2016023511) on human TLR7 and TLR8 were determined by the above test, and the measured EC50 values were as shown in Table 1.

CYP2D6 = biological target: T2, CYP2D6 (Homo sapiens, UniProt P10635); test: Inhibition of human liver microsome CYP2D6 (dextromethorphan substrate); assay type: in vitro ADME; conditions: human liver microsomes, 30 minutes, read-out: IC50 for the metabolic site on CYP2D6
T2 construct: Human liver microsomes (Corning Gentest); tissue Corning Gentest; host or cells: human liver microsomes
Experimental: The enzymatic activity of the compound of the present application against human liver microsome CYP2D6 was determined by the following experimental method:
CYP probe substrate (20 μM Dextromethorphan, SIGMA Q0750) and positive control inhibitor (Quinidine, SIGMA D9684).
100 mM PBS buffer was configured, and 2.5 mg/mL microsome solution and 5 mM NADPH solution were prepared with this buffer, and the 5× concentration compound working solution was diluted with PBS (150, 50, 15, 5, 1.5, 0.15, 0.015, 0 μM). The 5× concentration of Quinidine working solution (150, 50, 15, 5, 1.5, 0.15, 0.015, 0 μM) was diluted with PBS. Dextromethorphan working solution was diluted to a concentration of 20 μM with PBS.
20 μL each of 2.5 mg/mL microsome solution, 20 μM Dextromethorphan working solution, MgCl2 solution and compound working solution (150, 50, 15, 5, 1.5, 0.15, 0.015, 0 μM, each concentration was setted differently reaction system) were taken and mixed evenly. The compound was replaced with the same concentration of Quinidine at the positive control group. At the same time, 5 mM NADPH solution was pre-incubated for 5 minutes at 37° C. After 5 minutes, 20 μL NADPH were added into the wells, and the reaction was started and incubated for 30 minutes. All samples were incubated for two samples. […]

T2 sequence (P10635 whole entry): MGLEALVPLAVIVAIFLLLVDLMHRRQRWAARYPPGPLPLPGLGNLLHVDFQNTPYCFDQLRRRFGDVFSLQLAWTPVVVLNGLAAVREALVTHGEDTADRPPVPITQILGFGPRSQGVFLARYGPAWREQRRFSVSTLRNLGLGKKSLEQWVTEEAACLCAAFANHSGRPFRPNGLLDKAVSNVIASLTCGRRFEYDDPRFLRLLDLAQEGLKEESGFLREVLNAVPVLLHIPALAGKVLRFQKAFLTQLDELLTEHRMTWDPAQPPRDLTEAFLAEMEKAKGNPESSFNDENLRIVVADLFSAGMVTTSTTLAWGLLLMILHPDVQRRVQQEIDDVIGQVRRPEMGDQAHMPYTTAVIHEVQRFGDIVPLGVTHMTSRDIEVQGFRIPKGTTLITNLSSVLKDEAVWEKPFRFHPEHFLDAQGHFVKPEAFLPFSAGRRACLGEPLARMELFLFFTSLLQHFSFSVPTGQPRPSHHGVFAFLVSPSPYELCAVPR

With CCCCOc1nc(N)c2[nH]nc(Cc3ccc(CN4CCCC4)cc3)c2n1 [Embodiment 1, 5-Butoxy-3-(4-(pyrrolidin-1-ylmethyl)benzyl)-1H-pyrazolo[4,3-d]pyrimidin-7-amine] the EC50 (human TLR7) was 53 nM and the IC50 (CYP2D6) was greater than 30000 nM.

CCCCOc1nc(N)c2[nH]cc(Cc3ccc(CN4CCCC4)cc3)c2n1 [Embodiment 21 of WO2016023511] showed an EC50 (human TLR7) of 243 nM and an IC50 (CYP2D6) of 5300 nM.
